Test results as given in ChEMBL document CHEMBL3627663, “Synthesis and evaluation of 1-hydroxy/methoxy-4-methyl-2-phenyl-1H-imidazole-5-carboxylic acid derivatives as non-purine xanthine oxidase inhibitors” (Eur J Med Chem, 2015).

What was measured:
[1] = target: T1, Xanthine dehydrogenase/oxidase (Bos taurus, UniProt P80457); experiment: Inhibition of bovine XO using xanthine as substrate after 120 mins by spectrophotometric analysis
[2] = target: T1, Xanthine dehydrogenase/oxidase; experiment: Inhibition of bovine XO at 10 ug/ml using xanthine as substrate after 120 mins by spectrophotometric analysis; conditions: cattle, 2 h
[3] = target: T1, Xanthine dehydrogenase/oxidase; experiment: Ratio of Febuxostat IC50 to compound IC50 for bovine XO; conditions: cattle
[4] = target: T1, Xanthine dehydrogenase/oxidase; experiment: Mixed-type inhibition of bovine XO using xanthine as substrate by Lineweaver-Burk plot analysis; conditions: cattle

T1 sequence (P80457 whole entry): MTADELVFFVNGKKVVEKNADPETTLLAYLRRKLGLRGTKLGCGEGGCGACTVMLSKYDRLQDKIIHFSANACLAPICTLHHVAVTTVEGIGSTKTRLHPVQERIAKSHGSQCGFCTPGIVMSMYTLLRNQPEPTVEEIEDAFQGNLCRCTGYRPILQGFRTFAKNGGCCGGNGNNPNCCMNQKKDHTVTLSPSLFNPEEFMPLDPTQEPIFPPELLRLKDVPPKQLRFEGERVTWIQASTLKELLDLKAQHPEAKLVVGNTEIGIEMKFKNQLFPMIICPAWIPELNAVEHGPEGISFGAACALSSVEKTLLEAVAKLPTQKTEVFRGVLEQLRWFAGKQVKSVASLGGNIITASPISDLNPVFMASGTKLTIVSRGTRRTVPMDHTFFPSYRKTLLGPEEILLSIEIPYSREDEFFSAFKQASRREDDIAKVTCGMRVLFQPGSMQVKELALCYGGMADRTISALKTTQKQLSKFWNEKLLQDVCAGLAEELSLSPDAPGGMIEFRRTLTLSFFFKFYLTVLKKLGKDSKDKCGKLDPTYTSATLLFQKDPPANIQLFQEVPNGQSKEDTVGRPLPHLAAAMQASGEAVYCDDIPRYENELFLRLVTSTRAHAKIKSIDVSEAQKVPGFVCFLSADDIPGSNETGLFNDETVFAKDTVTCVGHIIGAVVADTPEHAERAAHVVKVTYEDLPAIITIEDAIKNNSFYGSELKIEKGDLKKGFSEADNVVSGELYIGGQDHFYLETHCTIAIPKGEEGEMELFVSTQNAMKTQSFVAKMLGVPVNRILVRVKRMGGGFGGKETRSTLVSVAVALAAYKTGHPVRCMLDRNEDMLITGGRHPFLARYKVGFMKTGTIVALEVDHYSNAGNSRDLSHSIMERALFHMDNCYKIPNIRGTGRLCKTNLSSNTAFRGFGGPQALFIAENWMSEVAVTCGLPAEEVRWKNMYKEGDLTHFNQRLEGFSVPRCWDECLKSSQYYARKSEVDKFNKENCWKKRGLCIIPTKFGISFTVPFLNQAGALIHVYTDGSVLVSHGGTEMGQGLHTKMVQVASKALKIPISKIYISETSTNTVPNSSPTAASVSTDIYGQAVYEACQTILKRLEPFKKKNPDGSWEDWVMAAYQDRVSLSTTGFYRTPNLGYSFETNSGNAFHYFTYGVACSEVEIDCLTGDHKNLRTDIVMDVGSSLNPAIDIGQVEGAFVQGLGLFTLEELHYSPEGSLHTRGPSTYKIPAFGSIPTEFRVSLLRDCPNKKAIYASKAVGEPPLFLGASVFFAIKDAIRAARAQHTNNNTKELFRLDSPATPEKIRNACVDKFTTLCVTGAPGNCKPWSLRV

| IC50 [1] [nM] | inhibition (INH) [2] [%] | inhibition (INH) ([1]; cattle, 2 h) | inhibition (INH) [4] | SMILES | Ratio IC50 [3] |
| --- | --- | --- | --- | --- | --- |
| 3 | 89.57 | – | – | CCCCOc1ccc(-c2nc(C)c(C(=O)O)n2O)cc1C#N | 3.3 |
| 6 | 94.08 | Dose-dependent effect | Active | Cc1nc(-c2ccc(OCC(C)C)c(C#N)c2)n(O)c1C(=O)O | 1.7 |
| – | 31.91 | – | – | COn1c(-c2ccc(OCC(C)C)c(C#N)c2)nc(C)c1C(=O)O | – |
| 3 | 88.33 | – | – | CCC(C)Oc1ccc(-c2nc(C)c(C(=O)O)n2O)cc1C#N (stereo not drawn) | 3.3 |
| 130 | 89.77 | – | – | CCCOc1ccc(-c2nc(C)c(C(=O)O)n2O)cc1C#N | – |
| 550 | 90.14 | – | – | COc1ccc(-c2nc(C)c(C(=O)O)n2O)cc1C#N | – |
| 170 | 91.04 | – | – | Cc1nc(-c2ccc(OC(C)C)c(C#N)c2)n(O)c1C(=O)O | – |
| 30 | 91.25 | – | – | Cc1nc(-c2ccc(OCCC(C)C)c(C#N)c2)n(O)c1C(=O)O | – |

Further lines, the compound ahead of its results:

| SMILES | IC50 [1] [nM] | inhibition (INH) [2] [%] | inhibition (INH) ([1]; cattle, 2 h) | inhibition (INH) [4] | Ratio IC50 [3] |
| --- | --- | --- | --- | --- | --- |
| COn1c(-c2ccc(OCCC(C)C)c(C#N)c2)nc(C)c1C(=O)O | 8000 | 59.55 | – | – | – |
| COn1c(-c2ccc(OCc3ccc(C)cc3)c(C#N)c2)nc(C)c1C(=O)O | 1100 | 86.72 | – | – | – |
| Cc1ccc(COc2ccc(-c3nc(C)c(C(=O)O)n3O)cc2C#N)cc1 | 110 | 91.65 | – | – | – |
| CCCCCCCOc1ccc(-c2nc(C)c(C(=O)O)n2OC)cc1C#N | – | 26.8 | – | – | – |
| CCCCCCCCOc1ccc(-c2nc(C)c(C(=O)O)n2OC)cc1C#N | – | 19 | – | – | – |
| Cc1nc(-c2ccc(OCC(C)C)c(C#N)c2)sc1C(=O)O [FEBUXOSTAT] | – | 90.89 | – | – | – |
| CCCOc1ccc(-c2nc(C)c(C(=O)O)n2OC)cc1C#N | – | 18.34 | – | – | – |
| CCCCCCOc1ccc(-c2nc(C)c(C(=O)O)n2OC)cc1C#N | 3900 | 80.34 | – | – | – |
| CCCCOc1ccc(-c2nc(C)c(C(=O)O)n2OC)cc1C#N | – | 41.19 | – | – | – |
| CCC(C)Oc1ccc(-c2nc(C)c(C(=O)O)n2OC)cc1C#N (stereo not drawn) | 1500 | 83.13 | – | – | – |
| COc1ccc(-c2nc(C)c(C(=O)O)n2OC)cc1C#N | – | 10.68 | – | – | – |
| COn1c(-c2ccc(OC(C)C)c(C#N)c2)nc(C)c1C(=O)O | – | 32.91 | – | – | – |
| CCCCCCOc1ccc(-c2nc(C)c(C(=O)O)n2O)cc1C#N | 30 | 92.51 | – | – | – |
| CCCCCCCCOc1ccc(-c2nc(C)c(C(=O)O)n2O)cc1C#N | 1200 | 88.17 | – | – | – |
| CCCCCCCOc1ccc(-c2nc(C)c(C(=O)O)n2O)cc1C#N | 110 | 89.93 | – | – | – |
